Reference: patent US20170210723A1, “MOLECULES HAVING PESTICIDAL UTILITY, AND INTERMEDIATES, COMPOSITIONS, AND PROCESSES, RELATED THERETO” (priority 2016, published 2017)

How the values were obtained:
Assay type in all cases: in vivo
[1] = system: Cabbage Looper (Trichoplusia ni); assay: Bioassays on CL, 128-well diet tray assay; details: Trichoplusia ni; for mortality at 50 µg/cm2: 168 h, 50 μg/cm^2 on artificial diet, second instar larvae, five to seven days, read-out: CL % Control (or Mortality) rating
Experimental: Bioassays on CL were conducted using a 128-well diet tray assay.
One to five second instar CL larvae were placed in each well (3 mL) of the diet tray that had been previously filled with 1 mL of artificial diet to which 50 μg/cm^2 of the test molecule (dissolved in 50 μL of 90:10 acetone-water mixture) had been applied (to each of eight wells) and then allowed to dry. Trays were covered with a clear self-adhesive cover and held at 25° C., 14:10 light-dark for five to seven days. Percent mortality was recorded for the larvae in each well; activity in the eight wells was then averaged. The results are indicated in the table entitled “Table ABC: Biological Results” (See Table Section).
(§1) Bioassays on BAW and CL were conducted according to the procedures outlined in Example A: Bioassays on Beet Armyworm (“BAW”) and Cabbage Looper (“CL”) using the indicated concentrations.

[2] = system: Yellow Fever Mosquito (Aedes aegypti); assay: Bioassays on Yellow Fever Mosquito larvae, 96-well plate; details: from 4000 ppm DMSO master plate, about 1 day-old larvae, 3 days
Experimental: Master plates containing 400 μg of a molecule dissolved in 100 μL of dimethyl sulfoxide (DMSO) (equivalent to a 4000 ppm solution) are used. A master plate of assembled molecules contains 15 μL per well. To this plate, 135 μL of a 90:10 water:acetone mixture is added to each well. A robot (Biomek® NXP Laboratory Automation Workstation) is programmed to dispense 15 μL aspirations from the master plate into an empty 96-well shallow plate (“daughter” plate). There are 6 reps (“daughter” plates) created per master. The created daughter plates are then immediately infested with YFM larvae.
The day before plates are to be treated, mosquito eggs are placed in Millipore water containing liver powder to begin hatching (4 g. into 400 mL). After the daughter plates are created using the robot, they are infested with 220 μL of the liver powder/larval mosquito mixture (about 1 day-old larvae). After plates are infested with mosquito larvae, a non-evaporative lid is used to cover the plate to reduce drying. Plates are held at room temperature for 3 days prior to grading. After 3 days, each well is observed and scored based on mortality. The results are indicated in the table entitled “Table ABC: Biological Results” (See Table Section). AGRICULTURALLY ACCEPTABLE ACID ADDITION SALTS, SALT DERIVATIVES, SOLVATES, ESTER DERIVATIVES, POLYMORPHS, ISOTOPES, AND RADIONUCLIDES

[3] = system: Beet Armyworm (Spodoptera exigua); assay: Bioassays on BAW, 128-well diet tray assay; details: Spodoptera exigua; for mortality at 50 µg/cm2: 168 h, 50 μg/cm^2 on artificial diet, second instar larvae, five to seven days, read-out: BAW % Control (or Mortality) rating
Experimental: Bioassays on BAW were conducted using a 128-well diet tray assay. One to five second instar BAW larvae were placed in each well (3 mL) of the diet tray that had been previously filled with 1 mL of artificial diet to which 50 μg/cm^2 of the test molecule (dissolved in 50 μL of 90:10 acetone-water mixture) had been applied (to each of eight wells) and then allowed to dry. Trays were covered with a clear self-adhesive cover and held at 25° C., 14:10 light-dark for five to seven days. Percent mortality was recorded for the larvae in each well; activity in the eight wells was then averaged. The results are indicated in the table entitled “Table ABC: Biological Results” (See Table Section).
as §1

SMILES | mortality at 50 µg/cm2 [1] [%] | YFM % Control (or Mortality) rating [2] | mortality at 50 µg/cm2 [3] [%] | further results
CC[S+]([O-])C[C@@H](C)NC(=O)c1ccc(/C=C/C(c2cc(Cl)c(Cl)c(Cl)c2)C(F)(F)F)cc1C(F)(F)F (stereo partly drawn) [F69, N-((2R)-1-(Ethylsulfinyl)propan-2-yl)-4-((E)-4,4,4-trifluoro-3-(3,4,5-trichlorophenyl)but-1-en-1-yl)-2-(trifluoromethyl)benzamide] | 50 to 100 | A (80-100) | 50 to 100 | 
CSCC[C@@H](NC(=O)c1ccc(/C=C/C(c2cc(Cl)c(Cl)c(Cl)c2)C(F)(F)F)cc1C(F)(F)F)C(=O)NCC(F)(F)F (stereo partly drawn) [F28, N—((R)-4-(Methylthio)-1-oxo-1-((2,2,2-trifluoroethyl)amino)butan-2-yl)-4-((E)-4,4,4-trifluoro-3-(3,4,5-trichlorophenyl)but-1-en-1-yl)-2-(trifluoromethyl)benzamide] | 50 to 100 | A (80-100) | 50 to 100 | 
C[C@H](CSCC(F)(F)F)NC(=O)c1ccc(/C=C/C(c2cc(Cl)cc(Cl)c2)C(F)(F)F)cc1C(F)(F)F (stereo partly drawn) [F88, 4-((E)-3-(3,5-Dichlorophenyl)-4,4,4-trifluorobut-1-en-1-yl)-N—((R)-1-((2,2,2-trifluoroethyl)thio)propan-2-yl)-2-(trifluoromethyl)benzamide] | 50 to 100 | A (80-100) | 50 to 100 | 
C[C@H](CSCC(F)(F)F)NC(=O)c1ccc(/C=C/C(c2cc(Cl)c(F)c(Cl)c2)C(F)(F)F)cc1Br (stereo partly drawn) [F34, 2-Bromo-4-((E)-3-(3,5-dichloro-4-fluorophenyl)-4,4,4-trifluorobut-1-en-1-yl)-N—((R)-1-((2,2,2-trifluoroethyl)thio)propan-2-yl)benzamide] | 50 to 100 | A (80-100) | 50 to 100 | 
C=CCS(=O)(=O)C[C@@H](C)NC(=O)c1ccc(/C=C/C(c2cc(Cl)c(Cl)c(Cl)c2)C(F)(F)F)cc1C(F)(F)F (stereo partly drawn) [F102, N—((R)-1-(Allylsulfonyl)propan-2-yl)-4-((E)-4,4,4-trifluoro-3-(3,4,5-trichlorophenyl)but-1-en-1-yl)-2-(trifluoromethyl)benzamide] | 50 to 100 | A (80-100) | 50 to 100 | 
O=C(NCC[S+]([O-])Cc1ccccc1)c1ccc(/C=C/C(c2cc(Cl)c(Cl)c(Cl)c2)C(F)(F)F)cc1Br (stereo not shown) [F2, (E)-N-(2-(Benzylsulfinyl)ethyl)-2-bromo-4-(4,4,4-trifluoro-3-(3,4,5-trichlorophenyl)but-1-en-1-yl)benzamide] | 50 to 100 | A (80-100) | 50 to 100 | 
C[C@H](CSCC(F)(F)F)NC(=O)c1ccc(/C=C/C(c2cc(Cl)c(Cl)c(Cl)c2)C(F)(F)F)cc1Cl (stereo partly drawn) [F67, 2-Chloro-4-((E)-4,4,4-trifluoro-3-(3,4,5-trichlorophenyl)but-1-en-1-yl)-N—((R)-1-((2,2,2-trifluoroethyl)thio)propan-2-yl)benzamide] | 50 to 100 | A (80-100) | 50 to 100 | 
CCc1cc(/C=C/C(c2cc(Cl)c(Cl)c(Cl)c2)C(F)(F)F)ccc1C(=O)N[C@H](C)CS(=O)(=O)CC(F)(F)F (stereo partly drawn) [F71, 2-Ethyl-4-((E)-4,4,4-trifluoro-3-(3,4,5-trichlorophenyl)but-1-en-1-yl)-N—((R)-1-((2,2,2-trifluoroethyl)sulfonyl)propan-2-yl)benzamide] | 50 to 100 | A (80-100) | 50 to 100 | 
Cc1cc(/C=C/C(c2cc(Br)cc(Br)c2)C(F)(F)F)ccc1C(=O)N[C@H](C)CS(=O)(=O)CC(F)(F)F (stereo partly drawn) [F66, 4-((E)-3-(3,5-Dibromophenyl)-4,4,4-trifluorobut-1-en-1-yl)-2-methyl-N—((R)-1-((2,2,2-trifluoroethyl)sulfonyl)propan-2-yl)benzamide] | 50 to 100 | A (80-100) | 50 to 100 | 
Cc1cc(/C=C/C(c2cc(Cl)c(Cl)c(Cl)c2)C(F)(F)F)cc(F)c1C(=O)N[C@H](C)CS(=O)(=O)CC(F)(F)F (stereo partly drawn) [F98, 2-Fluoro-6-methyl-4-((E)-4,4,4-trifluoro-3-(3,4,5-trichlorophenyl)but-1-en-1-yl)-N—((R)-1-((2,2,2-trifluoroethyl)sulfonyl)propan-2-yl)benzamide] | 50 to 100 | A (80-100) | 50 to 100 | 
CC(C)C[S+]([O-])C[C@@H](C)NC(=O)c1ccc(/C=C/C(c2cc(Cl)c(Cl)c(Cl)c2)C(F)(F)F)cc1C(F)(F)F (stereo partly drawn) [F87, N-((2R)-1-(Isobutylsulfinyl)propan-2-yl)-4-((E)-4,4,4-trifluoro-3-(3,4,5-trichlorophenyl)but-1-en-1-yl)-2-(trifluoromethyl)benzamide] | 50 to 100 | A (80-100) | 50 to 100 | 
C[C@H](C[S+]([O-])CC(F)(F)F)NC(=O)c1ccc(/C=C/C(c2cc(Cl)c(Cl)c(Cl)c2)C(F)(F)F)cc1Cl (stereo partly drawn) [F50, 2-Chloro-4-((E)-4,4,4-trifluoro-3-(3,4,5-trichlorophenyl)but-1-en-1-yl)-N-((2R)-1-((2,2,2-trifluoroethyl)sulfinyl)propan-2-yl)benzamide] | 50 to 100 | A (80-100) | 50 to 100 | 
C[C@H](CSCC(F)(F)F)NC(=O)c1ccc(/C=C/C(c2ccc(Cl)c(Cl)c2)C(F)(F)F)cc1Br (stereo partly drawn) [F137, 2-Bromo-4-((E)-3-(3,4-dichlorophenyl)-4,4,4-trifluorobut-1-en-1-yl)-N—((R)-1-((2,2,2-trifluoroethyl)thio)propan-2-yl)benzamide] | 50 to 100 |  | 50 to 100 | 
C[C@H](CS(=O)(=O)CC(F)(F)F)NC(=O)c1ccc(/C=C/C(c2cc(Br)cc(OCC(F)(F)F)c2)C(C)(F)F)cc1C(F)(F)F (stereo partly drawn) [F120, 4-((E)-3-(3-Bromo-5-(2,2,2-trifluoroethoxy)phenyl)-4,4-difluoropent-1-en-1-yl)-N—((R)-1-((2,2,2-trifluoroethyl)sulfonyl)propan-2-yl)-2-(trifluoromethyl)benzamide] | 50 to 100 |  | 50 to 100 | 
C[C@H](C[S+]([O-])CC(F)(F)F)NC(=O)c1ccc(/C=C/C(c2cc(Cl)c(Cl)c(Cl)c2)C(F)(F)F)cc1 (stereo partly drawn) [FC77, 4-((E)-4,4,4-Trifluoro-3-(3,4,5-trichlorophenyl)but-1-en-1-yl)-N-((2R)-1-((2,2,2-trifluoroethyl)sulfinyl)propan-2-yl)benzamide] | 50 to 100 |  | 50 to 100 | 
C[C@H](CS(=O)(=O)CC(F)(F)F)NC(=O)c1ccc(/C=C/C(c2cc(Cl)c(Cl)c(Cl)c2)C(F)(F)F)cc1 (stereo partly drawn) [FC78, 4-((E)-4,4,4-Trifluoro-3-(3,4,5-trichlorophenyl)but-1-en-1-yl)-N—((R)-1-((2,2,2-trifluoroethyl)sulfonyl)propan-2-yl)benzamide] | 50 to 100 |  | 50 to 100 | mortality at 0.05 µg/cm2 ([1]; 0.05 μg/cm^2, read-out: CL Percent control (or mortality)): 0%; mortality at 0.5 µg/cm2 ([1]; 0.5 μg/cm^2, read-out: CL Percent control (or mortality)): 7%; mortality at 5 µg/cm2 ([1]; 5 μg/cm^2, read-out: CL Percent control (or mortality)): 100%; mortality at 0.05 µg/cm2 ([3]; 0.05 μg/cm^2, read-out: BAW Percent control (or mortality)): 0%; mortality at 0.5 µg/cm2 ([3]; 0.5 μg/cm^2, read-out: BAW Percent control (or mortality)): 19%; mortality at 5 µg/cm2 ([3]; 5 μg/cm^2, read-out: BAW Percent control (or mortality)): 100%
CCCS(=O)(=O)C[C@@H](C)NC(=O)c1ccc(/C=C/C(c2cc(Cl)c(Cl)c(Cl)c2)C(F)(F)F)cc1C(F)(F)F (stereo partly drawn) [F79, N—((R)-1-(Propylsulfonyl)propan-2-yl)-4-((E)-4,4,4-trifluoro-3-(3,4,5-trichlorophenyl)but-1-en-1-yl)-2-(trifluoromethyl)benzamide] | 50 to 100 |  | 50 to 100 | 
